# Test results: publication PMC9234961 (Journal of Medicinal Chemistry, 2022)
# Tests used:
# Type in all cases: cell-based
# ADORA2A = ADORA2A (Homo sapiens, UniProt P29274); assay: SAFETYScan GPCR Calcium Flux, Antagonist
# Text: (§1) Supplement jm1c02175_si_002.xlsx, sheet "SAFETYScan" | column: RC50 (uM); Max Response
# EDNRA = molecular target: T1, EDNRA (Homo sapiens, UniProt P25101); assay: SAFETYScan GPCR Calcium Flux, Antagonist
# T1 sequence (P25101 21-427): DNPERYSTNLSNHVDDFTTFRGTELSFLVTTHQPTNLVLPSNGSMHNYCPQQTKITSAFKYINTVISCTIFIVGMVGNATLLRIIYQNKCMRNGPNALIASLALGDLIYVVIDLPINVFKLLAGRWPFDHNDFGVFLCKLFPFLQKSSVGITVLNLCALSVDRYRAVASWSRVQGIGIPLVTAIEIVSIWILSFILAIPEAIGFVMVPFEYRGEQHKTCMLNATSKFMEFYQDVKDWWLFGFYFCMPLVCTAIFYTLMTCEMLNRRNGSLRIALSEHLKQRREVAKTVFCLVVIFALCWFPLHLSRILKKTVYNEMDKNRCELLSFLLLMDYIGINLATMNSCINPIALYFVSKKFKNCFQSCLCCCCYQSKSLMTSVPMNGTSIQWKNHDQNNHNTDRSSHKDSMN
# Text: as §1
# GR = molecular target: T2, GR (Homo sapiens, UniProt P04150); assay: SAFETYScan NHR Protein Interaction, Antagonist
# T2 sequence (P04150 1-777): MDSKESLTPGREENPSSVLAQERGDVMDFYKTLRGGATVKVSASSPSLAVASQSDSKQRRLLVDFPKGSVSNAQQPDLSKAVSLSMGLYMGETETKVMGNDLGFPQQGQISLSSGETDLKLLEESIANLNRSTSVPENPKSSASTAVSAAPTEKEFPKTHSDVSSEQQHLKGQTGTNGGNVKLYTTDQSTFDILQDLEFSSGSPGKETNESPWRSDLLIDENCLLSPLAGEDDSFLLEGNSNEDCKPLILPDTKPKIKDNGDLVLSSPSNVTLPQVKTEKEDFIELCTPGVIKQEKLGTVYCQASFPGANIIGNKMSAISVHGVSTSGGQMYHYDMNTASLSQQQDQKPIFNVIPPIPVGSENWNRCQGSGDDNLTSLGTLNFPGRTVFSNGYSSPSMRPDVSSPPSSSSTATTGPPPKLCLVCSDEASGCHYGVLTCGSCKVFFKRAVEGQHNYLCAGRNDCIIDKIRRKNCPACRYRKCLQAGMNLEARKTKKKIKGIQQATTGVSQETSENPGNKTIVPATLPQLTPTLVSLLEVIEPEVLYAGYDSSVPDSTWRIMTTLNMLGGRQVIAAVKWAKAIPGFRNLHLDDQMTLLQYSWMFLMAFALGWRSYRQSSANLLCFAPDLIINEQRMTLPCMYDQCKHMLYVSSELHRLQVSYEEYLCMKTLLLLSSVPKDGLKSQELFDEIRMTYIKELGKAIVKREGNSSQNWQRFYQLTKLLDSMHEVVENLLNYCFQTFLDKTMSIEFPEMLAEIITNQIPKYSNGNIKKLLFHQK
# Text: as §1
# ADORA2A, sequence (P29274 whole entry): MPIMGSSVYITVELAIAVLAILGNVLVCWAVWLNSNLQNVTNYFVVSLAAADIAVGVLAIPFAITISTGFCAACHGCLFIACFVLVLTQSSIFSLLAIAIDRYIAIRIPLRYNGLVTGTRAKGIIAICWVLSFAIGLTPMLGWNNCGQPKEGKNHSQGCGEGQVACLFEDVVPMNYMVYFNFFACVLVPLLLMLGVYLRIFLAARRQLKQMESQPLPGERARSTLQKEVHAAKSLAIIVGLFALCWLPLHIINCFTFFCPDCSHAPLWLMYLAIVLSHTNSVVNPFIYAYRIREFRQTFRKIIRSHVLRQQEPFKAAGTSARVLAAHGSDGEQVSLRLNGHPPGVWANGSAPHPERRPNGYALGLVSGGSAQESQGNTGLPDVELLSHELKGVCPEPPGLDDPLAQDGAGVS
compound,measurement,setting,value
"C[C@H]1C[C@@H](O)CN(c2ncc(Cl)c(Nc3ccc4c(c3)c3c(c(=O)n4C)OCC(F)(F)[C@H](C4CC4)N3)n2)C1 [12a CCT373566, (S)-10-((5-Chloro-2-((3R,5S)-3-hydroxy-5-methylpiperidin-1-yl)pyrimidin-4-yl)amino)-2-cyclopropyl-3,3-difluoro-7-methyl-1,2,3,4-tetrahydro-[1,4]oxazepino[2,3-c]quinolin-6(7H)-one]",Emax,ADORA2A; read-out: Max Response,4.91%
same,IC50,ADORA2A; read-out: RC50 (IC50),> 10 µM
same,Emax,EDNRA; read-out: Max Response,0%
same,IC50,EDNRA; read-out: RC50 (IC50),> 10 µM
same,Emax,GR; read-out: Max Response,2.11%
same,IC50,GR; read-out: RC50 (IC50),> 10 µM
